From patent US5977133A, “Pyridone antibiotic with improved safety profile” (priority 1998, dated 1999)
Where a name gives a salt, the structure may show the parent alone. Read-outs that look alike come from different tables or passages of the source.

Tests used:
Assay type in all cases: cell-based
C. perfringens = experiment: microbe, parasite or virus in culture; settings: Clostridium perfringens
C. difficile = experiment: In vitro MIC, agar dilution; settings: C. difficile
N. gonorrhoeae = experiment: In vitro MIC, agar dilution; settings: Neisseria gonorrhoeae
E. faecalis (VanS) = experiment: In vitro MIC, agar dilution; settings: Enterococcus faecalis
S. pneumoniae (PenR) = experiment: In vitro MIC, agar dilution; settings: Streptococcus pneumoniae
E. faecium (CiproR) = experiment: In vitro MIC, agar dilution; settings: Enterococcus faecium; E. faecium (CiproR), 2 isolates; read-out: MIC Range
S. epidermidis (CiproS) = experiment: In vitro MIC, agar dilution; settings: Staphylococcus epidermidis
Legionella spp. = experiment: microbe, parasite or virus in culture; settings: Legionella
S. epidermidis (CiproR) = experiment: In vitro MIC, agar dilution; settings: Staphylococcus epidermidis
C. freundii = experiment: In vitro MIC, agar dilution; settings: Citrobacter freundii
Shigella spp. = experiment: microbe, parasite or virus in culture; settings: read-out: MIC Range
Enterococcus spp. (VanR) = experiment: In vitro MIC, agar dilution; settings: Enterococcus spp. (VanR), 21 isolates
H. pylori = experiment: In vitro MIC, agar dilution; settings: Helicobacter pylori
Salmonella spp. = experiment: In vitro MIC, agar dilution; settings: 23 isolates
Procedure, shortened: (§1)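 Agar dilution plates were inoculated with ~10^4 CFU per spot by replicator, using 1:100 dilutions (1:10 for slow growers) and incubated at 35–37 °C for 20–24 h. MIC is the lowest concentration giving no growth, where slight haze or sparse colonies count as none, judged against a compound-free BHI agar control.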

E. coli = experiment: In vitro MIC, agar dilution; settings: Escherichia coli, 25 isolates
Procedure, shortened: as §1

M. pneumoniae = experiment: In vitro MIC, agar dilution; settings: Mycoplasmoides pneumoniae; M. pneumoniae, 7 isolates; read-out: MIC Range
E. faecium (CiproS) = experiment: In vitro MIC, agar dilution; settings: Enterococcus faecium
S. pyogenes = experiment: In vitro MIC, agar dilution; settings: Streptococcus pyogenes
P. mirabilis = experiment: In vitro MIC, agar dilution; settings: Proteus mirabilis
Klebsiella spp. = experiment: In vitro MIC, agar dilution
M. catarrhalis = experiment: In vitro MIC, agar dilution; settings: Moraxella catarrhalis
Enterobacter spp. = experiment: In vitro MIC, agar dilution
S. aureus (CiproS) = experiment: In vitro MIC, agar dilution; settings: Staphylococcus aureus
Providencia spp. = experiment: In vitro MIC, agar dilution
E. faecium (VanS) = experiment: In vitro MIC, agar dilution; settings: Enterococcus faecium
B. fragilis = experiment: In vitro MIC, agar dilution
H. influenzae = experiment: In vitro MIC, agar dilution; settings: Haemophilus influenzae, H. influenzae, 18 isolates
S. aureus (CiproR) = experiment: In vitro MIC, agar dilution; settings: Staphylococcus aureus
M. avium = experiment: In vitro MIC, agar dilution; settings: Mycobacterium avium

With CN[C@@H]1CN(c2c(F)cn3c(=O)c(C(=O)O)cc(C4CC4)c3c2C)CC12CC2 [Example 1, 1-cyclopropyl-8-(7(S)-N-methylamino-5-azaspiro[2.4]heptyl)-7-fluoro-9-methyl-4-oxo-4H-guinolizine-3-carboxylic acid hydrochloride] as the compound, how does the MIC50 (C. perfringens) read?
The MIC50 was 0.12 µg/mL.

What about the MIC90 (C. perfringens) of the same compound?
The MIC90 was 0.12 µg/mL.

What about the MIC90 (C. perfringens; C. perfringens, 13 isolates) of the same compound?
The MIC90 was 0.25 µg/mL.

And the MIC (C. perfringens; read-out: MIC Range)?
Its MIC is 0.12 to 0.25 µg/mL.

And the MIC90 (C. difficile; 10 isolates)?
Its MIC90 is 0.5 µg/mL.

What about the MIC50 (C. difficile; Clostridioides difficile, 10 isolates, read-out: MIC50) of the same compound?
The MIC50 was 0.5 µg/mL.

What about the MIC (C. difficile; Clostridioides difficile, 10 isolates, read-out: MIC Range) of the same compound?
The MIC was 0.5 µg/mL.

And the MIC90 (C. difficile; Clostridioides difficile, read-out: MIC90)?
The MIC90 was 0.5 µg/mL.

And the MIC90 (N. gonorrhoeae)?
The MIC90 was 0.004 µg/mL.

And the MIC50 (N. gonorrhoeae; N. gonorrhoeae, 12 isolates, read-out: MIC50)?
Its MIC50 is 0.002 µg/mL.

What about the MIC (N. gonorrhoeae; N. gonorrhoeae, 12 isolates, read-out: MIC Range) of the same compound?
The MIC was 0.001 to 0.015 µg/mL.

What about the MIC90 (E. faecalis (VanS)) of the same compound?
The MIC90 was 0.25 µg/mL.

And the MIC (E. faecalis (VanS); read-out: MIC Range)?
Its MIC is 0.12 to 0.25 µg/mL.

And the MIC50 (E. faecalis (VanS); E. faecalis (VanS), 17 isolates, read-out: MIC50)?
The MIC50 was 0.12 µg/mL.

What about the MIC90 (S. pneumoniae (PenR)) of the same compound?
The MIC90 was 0.06 µg/mL.

What about the MIC50 (S. pneumoniae (PenR); S. pneumoniae (PenR), 25 isolates, read-out: MIC50) of the same compound?
Its MIC50 is 0.06 µg/mL.

And the MIC (S. pneumoniae (PenR); S. pneumoniae (PenR), 25 isolates, read-out: MIC Range)?
The MIC was 0.03 to 0.06 µg/mL.

What about the MIC (E. faecium (CiproR)) of the same compound?
The MIC was 0.5 to 4 µg/mL.

And the MIC90 (S. epidermidis (CiproS))?
The MIC90 was 0.03 µg/mL.

And the MIC50 (S. epidermidis (CiproS); S. epidermidis (CiproS), 23 isolates, read-out: MIC50)?
The MIC50 was 0.015 µg/mL.

What about the MIC (S. epidermidis (CiproS); S. epidermidis (CiproS), 23 isolates, read-out: MIC Range) of the same compound?
Its MIC is 0.015 to 0.03 µg/mL.

What about the MIC50 (Legionella spp.) of the same compound?
Its MIC50 is 0.12 µg/mL.

What about the MIC90 (Legionella spp.) of the same compound?
The MIC90 was 0.25 µg/mL.

And the MIC (Legionella spp.; read-out: MIC Range)?
Its MIC is 0.12 to 0.25 µg/mL.

And the MIC90 (S. epidermidis (CiproR))?
Its MIC90 is 0.5 µg/mL.

What about the MIC (S. epidermidis (CiproR); read-out: MIC Range) of the same compound?
The MIC was 0.12 to 2 µg/mL.

And the MIC50 (S. epidermidis (CiproR); S. epidermidis (CiproR), 11 isolates, read-out: MIC50)?
The MIC50 was 0.25 µg/mL.

What about the MIC50 (C. freundii) of the same compound?
The MIC50 was 0.03 µg/mL.

What about the MIC90 (C. freundii) of the same compound?
Its MIC90 is 0.25 µg/mL.

And the MIC (C. freundii; C. freundii, 20 isolates, read-out: MIC Range)?
Its MIC is 0.015 to 0.25 µg/mL.

What about the MIC (Shigella spp.) of the same compound?
Its MIC is 0.002 to 0.15 µg/mL.

And the MIC50 (Enterococcus spp. (VanR); read-out: MIC50)?
The MIC50 was 0.5 µg/mL.

What about the MIC90 (Enterococcus spp. (VanR); read-out: MIC90) of the same compound?
Its MIC90 is 1 µg/mL.

And the MIC (Enterococcus spp. (VanR); read-out: MIC Range)?
The MIC was 0.06 to 4 µg/mL.

What about the MIC50 (H. pylori) of the same compound?
The MIC50 was 0.03 µg/mL.

What about the MIC90 (H. pylori) of the same compound?
Its MIC90 is 0.03 µg/mL.

What about the MIC (H. pylori; H. pylori, 17 isolates, read-out: MIC Range) of the same compound?
Its MIC is 0.008 to 0.03 µg/mL.

And the MIC (Salmonella spp.)?
The MIC was 0.004 to 0.12 µg/mL.

What about the MIC50 (Salmonella spp.; read-out: MIC50) of the same compound?
Its MIC50 is 0.03 µg/mL.

What about the MIC90 (Salmonella spp.; read-out: MIC90) of the same compound?
Its MIC90 is 0.03 µg/mL.

And the MIC (E. coli)?
The MIC was 0.004 to 0.015 µg/mL.

And the MIC50 (E. coli; read-out: MIC50)?
The MIC50 was 0.015 µg/mL.

And the MIC90 (E. coli; read-out: MIC90)?
The MIC90 was 0.015 µg/mL.

What about the MIC (M. pneumoniae) of the same compound?
Its MIC is 0.015 to 0.03 µg/mL.

And the MIC (E. faecium (CiproS); read-out: MIC Range)?
The MIC was 0.25 to 1 µg/mL.

And the MIC50 (E. faecium (CiproS); E. faecium (CiproS), 16 isolates, read-out: MIC50)?
Its MIC50 is 0.5 µg/mL.

And the MIC90 (E. faecium (CiproS); E. faecium (CiproS), 16 isolates, read-out: MIC90)?
The MIC90 was 1 µg/mL.

What about the MIC50 (S. pyogenes) of the same compound?
The MIC50 was 0.03 µg/mL.

What about the MIC90 (S. pyogenes) of the same compound?
Its MIC90 is 0.06 µg/mL.

And the MIC (S. pyogenes; S. pyogenes, 21 isolates, read-out: MIC Range)?
Its MIC is 0.03 to 0.06 µg/mL.

And the MIC90 (P. mirabilis)?
The MIC90 was 0.12 µg/mL.

And the MIC (P. mirabilis; read-out: MIC Range)?
Its MIC is 0.03 to 0.25 µg/mL.

And the MIC50 (P. mirabilis; P. mirabilis, 20 isolates, read-out: MIC50)?
Its MIC50 is 0.12 µg/mL.

What about the MIC90 (Klebsiella spp.; Klebsiella) of the same compound?
The MIC90 was 0.03 µg/mL.

What about the MIC50 (Klebsiella spp.; Klebsiella spp., 29 isolates, read-out: MIC50) of the same compound?
The MIC50 was 0.015 µg/mL.

And the MIC (Klebsiella spp.; Klebsiella spp., 29 isolates, read-out: MIC Range)?
Its MIC is 0.002 to 0.12 µg/mL.

What about the MIC90 (M. catarrhalis) of the same compound?
Its MIC90 is 0.03 µg/mL.

And the MIC50 (M. catarrhalis; M. catarrhalis, 18 isolates, read-out: MIC50)?
The MIC50 was 0.015 µg/mL.

What about the MIC (M. catarrhalis; M. catarrhalis, 18 isolates, read-out: MIC Range) of the same compound?
The MIC was 0.008 to 0.03 µg/mL.

What about the MIC90 (Enterobacter spp.; Enterobacter) of the same compound?
The MIC90 was 0.03 µg/mL.

And the MIC50 (Enterobacter spp.; Enterobacter spp., 35 isolates, read-out: MIC50)?
The MIC50 was 0.015 µg/mL.

What about the MIC (Enterobacter spp.; Enterobacter spp., 35 isolates, read-out: MIC Range) of the same compound?
The MIC was 0.008 to 0.12 µg/mL.

And the MIC90 (S. aureus (CiproS))?
Its MIC90 is 0.03 µg/mL.

And the MIC50 (S. aureus (CiproS); S. aureus (CiproS), 21 isolates, read-out: MIC50)?
Its MIC50 is 0.015 µg/mL.

What about the MIC (S. aureus (CiproS); S. aureus (CiproS), 21 isolates, read-out: MIC Range) of the same compound?
The MIC was 0.015 to 0.03 µg/mL.

And the MIC90 (Providencia spp.; Providencia)?
Its MIC90 is 0.25 µg/mL.

What about the MIC50 (Providencia spp.; Providencia spp., 28 isolates, read-out: MIC50) of the same compound?
Its MIC50 is 0.06 µg/mL.

What about the MIC (Providencia spp.; Providencia spp., 28 isolates, read-out: MIC Range) of the same compound?
The MIC was 0.015 to 1 µg/mL.

And the MIC (E. faecium (VanS); read-out: MIC Range)?
Its MIC is 0.12 to 1 µg/mL.

What about the MIC50 (E. faecium (VanS); E. faecium (VanS), 11 isolates, read-out: MIC50) of the same compound?
The MIC50 was 0.5 µg/mL.

What about the MIC90 (E. faecium (VanS); E. faecium (VanS), 11 isolates, read-out: MIC90) of the same compound?
The MIC90 was 1 µg/mL.

What about the MIC90 (B. fragilis; B. fragilis, 18 isolates) of the same compound?
The MIC90 was 0.12 µg/mL.

What about the MIC (B. fragilis; Bacteroides fragilis, read-out: MIC Range) of the same compound?
Its MIC is 0.06 to 0.12 µg/mL.

What about the MIC50 (B. fragilis; Bacteroides fragilis, B. fragilis, 18 isolates, read-out: MIC50) of the same compound?
The MIC50 was 0.06 µg/mL.

And the MIC90 (B. fragilis; Bacteroides fragilis, B. fragilis, read-out: MIC90)?
The MIC90 was 0.12 µg/mL.

What about the MIC50 (H. influenzae; read-out: MIC50) of the same compound?
Its MIC50 is 0.004 µg/mL.

What about the MIC90 (H. influenzae; read-out: MIC90) of the same compound?
The MIC90 was 0.008 µg/mL.

And the MIC (H. influenzae; read-out: MIC Range)?
Its MIC is 0.002 to 0.015 µg/mL.

And the MIC90 (S. aureus (CiproR))?
Its MIC90 is 0.5 µg/mL.

And the MIC50 (S. aureus (CiproR); S. aureus (CiproR), 25 isolates, read-out: MIC50)?
Its MIC50 is 0.5 µg/mL.

And the MIC (S. aureus (CiproR); S. aureus (CiproR), 25 isolates, read-out: MIC Range)?
The MIC was 0.015 to 0.5 µg/mL.

What about the MIC (M. avium; read-out: MIC Range) of the same compound?
Its MIC is 0.25 to 8 µg/mL.

And the MIC50 (M. avium; M. avium, 20 isolates, read-out: MIC50)?
The MIC50 was 1 µg/mL.

What about the MIC90 (M. avium; M. avium, 20 isolates, read-out: MIC90) of the same compound?
The MIC90 was 4 µg/mL.
